From article PMC12217679 (Scientific Reports, 2025)

Key:
[1] = target: DPP4; conditions: read-out: dissociation constant (Kd) with DPP4; cited from earlier work
[2] = system: cholesterol metabolism; conditions: cited from earlier work
[3] = system: hepatic NPC1L1; conditions: cited from earlier work
[4] = system: mouse liver; conditions: cited from earlier work
[5] = target: T1, human intestinal alkaline phosphatase (hIAP) (Homo sapiens, UniProt P09923); experiment: SPR competition of IIAEK binding to hIAP by PLP; conditions: IIAEK 297 μM, PLP 0, 1000 and 2000 μM, HBS-N pH 7.4
T1 sequence (P09923 20-503 limits assumed): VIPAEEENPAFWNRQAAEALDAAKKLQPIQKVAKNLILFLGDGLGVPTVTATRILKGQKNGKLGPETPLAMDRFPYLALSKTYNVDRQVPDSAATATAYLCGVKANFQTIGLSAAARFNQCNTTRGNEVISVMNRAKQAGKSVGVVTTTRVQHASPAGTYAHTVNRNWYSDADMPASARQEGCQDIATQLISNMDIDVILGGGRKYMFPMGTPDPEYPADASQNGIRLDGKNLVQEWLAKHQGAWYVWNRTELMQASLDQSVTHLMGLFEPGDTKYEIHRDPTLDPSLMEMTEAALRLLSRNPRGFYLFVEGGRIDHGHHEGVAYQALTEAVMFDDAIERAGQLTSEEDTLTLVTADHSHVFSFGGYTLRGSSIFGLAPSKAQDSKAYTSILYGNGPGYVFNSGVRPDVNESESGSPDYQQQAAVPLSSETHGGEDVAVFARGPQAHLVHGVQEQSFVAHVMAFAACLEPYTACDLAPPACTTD

GLP-1: DPP4 substrate
Kd [1]: 153 µM

HIRL
improvement of cholesterol metabolism in animal studies [2]: effectively improve cholesterol metabolism

VSEE
improvement of cholesterol metabolism in animal studies [2]: effectively improve cholesterol metabolism

VHVV
improvement of cholesterol metabolism in animal studies [2]: effectively improve cholesterol metabolism

VAWWMY
improvement of cholesterol metabolism in animal studies [2]: effectively improve cholesterol metabolism

O=C1[C@H](CC[C@H](O)c2ccc(F)cc2)[C@@H](c2ccc(O)cc2)N1c1ccc(F)cc1 [ezetimibe]
hepatic NPC1L1-induced hepatic lipids accumulation [3]: eliminated
hepatic mRNA levels of Hmgcr and Srebf2 [4]: increasing hepatic mRNA levels of Hmgcr and Srebf2
liver cholesterol levels [4]: decreases liver cholesterol levels

VFVRN
improvement of cholesterol metabolism in animal studies [2]: effectively improve cholesterol metabolism

Cc1ncc(COP(=O)(O)O)c(C=O)c1O [PLP, Pyridoxal 5′-phosphate]
competition with IIAEK for hIAP [5]: competes for the interaction between IIAEK and hIAP in a concentration-dependent manner

GEQQQPGM
improvement of cholesterol metabolism in animal studies [2]: effectively improve cholesterol metabolism
